Measured values published in PubChem BioAssay AID1259407 (Chemical Carcinogenesis Research Information System (CCRIS), 2018).
The source made the active and inactive calls. How the calls were made is not given here.

System: CCRIS mutagenicity, Ames/micronucleus/aberration tests
Test: CCRIS mutagenicity studies
[1] = Test System: AMES SALMONELLA TYPHIMURIUM, Strain/Indicator: TA98, Metabolic Activation: RAT, LIVER, S-9, AROCLOR 1254, Method: STANDARD PLATE
[2] = Test System: AMES SALMONELLA TYPHIMURIUM, Strain/Indicator: TA100, Metabolic Activation: NONE, Method: STANDARD PLATE
[3] = Test System: AMES SALMONELLA TYPHIMURIUM, Strain/Indicator: TA100, Metabolic Activation: RAT, LIVER, S-9, AROCLOR 1254, Method: STANDARD PLATE
[4] = Test System: AMES SALMONELLA TYPHIMURIUM, Strain/Indicator: TA98, Metabolic Activation: NONE, Method: PREINCUBATION
[5] = Test System: AMES SALMONELLA TYPHIMURIUM, Strain/Indicator: TA100, Metabolic Activation: NONE, Method: PREINCUBATION
[6] = Test System: AMES SALMONELLA TYPHIMURIUM, Strain/Indicator: TA100, Metabolic Activation: RAT, LIVER, S-9, AROCLOR 1254, Method: PREINCUBATION
[7] = Test System: AMES SALMONELLA TYPHIMURIUM, Strain/Indicator: TA98, Metabolic Activation: NONE, Method: STANDARD PLATE

N[C@@H](CS)C(=O)O
mutagenic call (End Point: IN VIVO MICRONUCLEUS, Test System: BONE MARROW POLYCHROMATIC ERYTHROCYTES, Species: MOUSE, Strain/Sex: DDY/MALE, Route: IP): inactive; negative
mutagenic call (Test System: AMES SALMONELLA TYPHIMURIUM, Strain/Indicator: TA92, Metabolic Activation: HOMOGENIZED V-79, Method: STANDARD PLATE): active; positive
mutagenic call (Test System: AMES SALMONELLA TYPHIMURIUM, Strain/Indicator: TA92, Metabolic Activation: NONE, Method: STANDARD PLATE): active; positive
mutagenic call (Test System: AMES SALMONELLA TYPHIMURIUM, Strain/Indicator: TA92, Metabolic Activation: RAT, KIDNEY, S-9, Method: PREINCUBATION): active; positive
mutagenic call (Test System: AMES SALMONELLA TYPHIMURIUM, Strain/Indicator: TA92, Metabolic Activation: RAT, KIDNEY, S-9, Method: STANDARD PLATE): active; positive
mutagenic call (Test System: AMES SALMONELLA TYPHIMURIUM, Strain/Indicator: TA92, Metabolic Activation: RAT, LIVER, S-9, Method: STANDARD PLATE): active; positive
mutagenic call (Test System: AMES SALMONELLA TYPHIMURIUM, Strain/Indicator: TA97, Metabolic Activation: RAT, KIDNEY, S-9, Method: PREINCUBATION): active; positive
mutagenic call (Test System: AMES SALMONELLA TYPHIMURIUM, Strain/Indicator: TA97, Metabolic Activation: RAT, KIDNEY, S-9, Method: STANDARD PLATE): active; positive
mutagenic call (Test System: AMES SALMONELLA TYPHIMURIUM, Strain/Indicator: TA98, Metabolic Activation: HAMSTER, LIVER, S-9, AROCLOR 1254, Method: STANDARD PLATE): active; positive
mutagenic call [1]: active; positive
mutagenic call (Test System: AMES SALMONELLA TYPHIMURIUM, Strain/Indicator: TA100, Metabolic Activation: HAMSTER, LIVER, S-9, AROCLOR 1254, Method: STANDARD PLATE): active; positive
mutagenic call [2]: active; positive
mutagenic call (Test System: AMES SALMONELLA TYPHIMURIUM, Strain/Indicator: TA100, Metabolic Activation: RAT, KIDNEY, S-9, Method: PREINCUBATION): active; positive
mutagenic call (Test System: AMES SALMONELLA TYPHIMURIUM, Strain/Indicator: TA100, Metabolic Activation: RAT, KIDNEY, S-9, Method: STANDARD PLATE): active; positive
mutagenic call [3]: active; positive
mutagenic call (Test System: AMES SALMONELLA TYPHIMURIUM, Strain/Indicator: TA100, Metabolic Activation: RAT, LIVER, S-9, Method: STANDARD PLATE): active; positive
mutagenic call (Test System: AMES SALMONELLA TYPHIMURIUM, Strain/Indicator: TA102, Metabolic Activation: NONE, Method: STANDARD PLATE): active; positive
mutagenic call (Test System: AMES SALMONELLA TYPHIMURIUM, Strain/Indicator: TA102, Metabolic Activation: RAT, KIDNEY, S-9, Method: PREINCUBATION): active; positive
mutagenic call (Test System: AMES SALMONELLA TYPHIMURIUM, Strain/Indicator: TA104, Metabolic Activation: RAT, KIDNEY, S-9, Method: PREINCUBATION): active; positive
mutagenic call (Test System: AMES SALMONELLA TYPHIMURIUM, Strain/Indicator: TA104, Metabolic Activation: RAT, KIDNEY, S-9, Method: STANDARD PLATE): inactive; negative
mutagenic call (Test System: AMES SALMONELLA TYPHIMURIUM, Strain/Indicator: TA1535, Metabolic Activation: RAT, KIDNEY, S-9, Method: PREINCUBATION): inactive; negative
mutagenic call (Test System: AMES SALMONELLA TYPHIMURIUM, Strain/Indicator: TA1537, Metabolic Activation: RAT, KIDNEY, S-9, Method: PREINCUBATION): inactive; negative
mutagenic call (Test System: CHINESE HAMSTER V-79, Strain/Indicator: V-79/6-THIOGUANINE, Metabolic Activation: NONE, Method: STANDARD PLATE): inactive; negative
mutagenic call (Test System: MOUSE LYMPHOMA, Strain/Indicator: L5178Y (TK+/TK-), Metabolic Activation: NONE, Method: SUSPENSION/PLATE): active; positive. reevaluation of results: positive
mutagenic call (Test System: MOUSE LYMPHOMA, Strain/Indicator: L5178Y (TK+/TK-), Metabolic Activation: RAT, LIVER, S-9, AROCLOR 1254, Method: SUSPENSION/PLATE): active; positive. reevaluation of results: positive

Nc1ccc(Oc2ccc(N)c(N)c2)cc1
mutagenic call [4]: inactive; negative
mutagenic call (Test System: AMES SALMONELLA TYPHIMURIUM, Strain/Indicator: TA98, Metabolic Activation: RAT, LIVER, S-9, PCB, Method: PREINCUBATION): active; positive
mutagenic call [5]: inactive; negative
mutagenic call (Test System: AMES SALMONELLA TYPHIMURIUM, Strain/Indicator: TA100, Metabolic Activation: RAT, LIVER, S-9, PCB, Method: PREINCUBATION): active; positive

Nc1cc2ccccc2cc1N
mutagenic call (Test System: AMES SALMONELLA TYPHIMURIUM, Strain/Indicator: TA98, Metabolic Activation: RAT LIVER CYTOSOL, AROCLOR 1254, Method: STANDARD PLATE): active; positive
mutagenic call (Test System: AMES SALMONELLA TYPHIMURIUM, Strain/Indicator: TA98, Metabolic Activation: RAT LIVER MICROSOMES, AROCLOR 1254, Method: STANDARD PLATE): active; positive

O=C(O)/C=C/c1ccc(Cl)cc1
mutagenic call [5]: inactive; negative
mutagenic call [6]: inactive; negative

O=[N+]([O-])c1ccc2c(c1)NCC2
mutagenic call [7]: active; positive

CN1C(CSCC(F)(F)F)Nc2cc(Cl)c(S(N)(=O)=O)cc2S1(=O)=O (centres undefined)
mutagenic call (Test System: AMES SALMONELLA TYPHIMURIUM, Strain/Indicator: TA97, Metabolic Activation: HAMSTER, LIVER, S-9, AROCLOR 1254 (10 OR 30%), Method: PREINCUBATION): inactive; negative
mutagenic call (Test System: AMES SALMONELLA TYPHIMURIUM, Strain/Indicator: TA97, Metabolic Activation: NONE, Method: PREINCUBATION): inactive; negative
mutagenic call (Test System: AMES SALMONELLA TYPHIMURIUM, Strain/Indicator: TA97, Metabolic Activation: RAT, LIVER, S-9, AROCLOR 1254 (10 OR 30%), Method: PREINCUBATION): inactive; negative
mutagenic call (Test System: AMES SALMONELLA TYPHIMURIUM, Strain/Indicator: TA98, Metabolic Activation: HAMSTER, LIVER, S-9, AROCLOR 1254 (10 OR 30%), Method: PREINCUBATION): inactive; negative
mutagenic call [4]: inactive; negative
mutagenic call (Test System: AMES SALMONELLA TYPHIMURIUM, Strain/Indicator: TA98, Metabolic Activation: RAT, LIVER, S-9, AROCLOR 1254 (10 OR 30%), Method: PREINCUBATION): inactive; negative
mutagenic call (Test System: AMES SALMONELLA TYPHIMURIUM, Strain/Indicator: TA100, Metabolic Activation: HAMSTER, LIVER, S-9, AROCLOR 1254 (10 OR 30%), Method: PREINCUBATION): inactive; negative
mutagenic call [5]: inactive; negative
mutagenic call (Test System: AMES SALMONELLA TYPHIMURIUM, Strain/Indicator: TA100, Metabolic Activation: RAT, LIVER, S-9, AROCLOR 1254 (10 OR 30%), Method: PREINCUBATION): inactive; negative
mutagenic call (Test System: AMES SALMONELLA TYPHIMURIUM, Strain/Indicator: TA1535, Metabolic Activation: HAMSTER, LIVER, S-9, AROCLOR 1254 (10 OR 30%), Method: PREINCUBATION): inactive; negative
mutagenic call (Test System: AMES SALMONELLA TYPHIMURIUM, Strain/Indicator: TA1535, Metabolic Activation: NONE, Method: PREINCUBATION): inactive; negative
mutagenic call (Test System: AMES SALMONELLA TYPHIMURIUM, Strain/Indicator: TA1535, Metabolic Activation: RAT, LIVER, S-9, AROCLOR 1254 (10 OR 30%), Method: PREINCUBATION): inactive; negative

O=C(/C=C/c1ccccc1)c1ccccc1
mutagenic call [7]: inactive; negative
mutagenic call [1]: inactive; negative
mutagenic call [5]: inactive; negative
mutagenic call [2]: inactive; negative
mutagenic call [6]: inactive; negative
mutagenic call [3]: inactive; negative

COC(=O)CCCN(N=O)C(N)=O
mutagenic call (Test System: E. COLI B, Strain/Indicator: H/R30R, Metabolic Activation: NONE): active; positive
mutagenic call (Test System: E. COLI B, Strain/Indicator: HS30R, Metabolic Activation: NONE): active; positive
